For 19 compounds, EC50 results are on record in patent US9492436B2, “Azabenzimidazole derivatives” (Boehringer Ingelheim International GmbH, priority 2013, dated 2016).

SMILES strings stand for the structures.

T1 sequence (Q13131 whole entry): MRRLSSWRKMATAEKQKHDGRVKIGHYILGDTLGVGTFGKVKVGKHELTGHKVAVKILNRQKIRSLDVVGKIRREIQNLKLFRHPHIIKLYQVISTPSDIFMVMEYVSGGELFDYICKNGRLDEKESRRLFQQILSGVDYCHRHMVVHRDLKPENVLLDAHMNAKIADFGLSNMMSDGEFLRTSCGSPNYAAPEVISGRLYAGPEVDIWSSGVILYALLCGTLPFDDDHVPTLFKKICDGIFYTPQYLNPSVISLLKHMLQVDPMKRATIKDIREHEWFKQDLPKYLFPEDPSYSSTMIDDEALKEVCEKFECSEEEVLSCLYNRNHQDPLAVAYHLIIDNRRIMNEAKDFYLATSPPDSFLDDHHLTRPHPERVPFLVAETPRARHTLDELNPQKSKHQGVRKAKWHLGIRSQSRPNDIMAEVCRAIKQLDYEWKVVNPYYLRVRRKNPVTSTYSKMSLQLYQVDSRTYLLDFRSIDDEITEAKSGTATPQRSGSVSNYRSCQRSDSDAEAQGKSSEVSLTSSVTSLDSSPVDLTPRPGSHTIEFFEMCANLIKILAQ
T1 sequence (Q9Y478 whole entry): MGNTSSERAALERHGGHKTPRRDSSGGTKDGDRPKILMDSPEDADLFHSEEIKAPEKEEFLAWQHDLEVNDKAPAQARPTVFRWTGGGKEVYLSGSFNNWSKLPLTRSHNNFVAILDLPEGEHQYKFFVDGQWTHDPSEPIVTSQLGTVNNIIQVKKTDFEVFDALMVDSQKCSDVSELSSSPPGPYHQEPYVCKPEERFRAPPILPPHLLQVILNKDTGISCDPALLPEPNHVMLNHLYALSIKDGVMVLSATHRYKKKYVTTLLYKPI
T1 sequence (P54619 whole entry partner): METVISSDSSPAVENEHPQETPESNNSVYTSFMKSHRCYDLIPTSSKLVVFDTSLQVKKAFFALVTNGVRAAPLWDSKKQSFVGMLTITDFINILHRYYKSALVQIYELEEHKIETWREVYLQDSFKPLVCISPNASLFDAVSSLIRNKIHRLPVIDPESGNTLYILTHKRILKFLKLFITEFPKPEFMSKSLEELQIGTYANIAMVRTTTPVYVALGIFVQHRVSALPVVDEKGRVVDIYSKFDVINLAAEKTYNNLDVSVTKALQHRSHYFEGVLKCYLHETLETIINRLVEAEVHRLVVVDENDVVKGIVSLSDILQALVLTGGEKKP

The assay addresses T1, AMPK complex 1 (containing alpha1beta1gamma1) (Homo sapiens, UniProt Q13131+Q9Y478).
T1 construct: GST (Glutathion S transferase) (N); made in house; host or cells: baculovirus; virus made in Sf9, expression in High Five cells
As to the kind of experiment: In vitro AMPK activation assay (ADP-Glo Kinase Assay). The format is biochemical. The settings on record: 30 μM ATP, 1 μM peptide, 60 min, room temperature. The text has this: Activated AMPK complex 1 (containing alpha1beta1gamma1) was obtained from baculovirus expression system. The gene encoding AMPK alpha1 was cloned into the pACG2T vector (BD Biosciences) to obtain a N-terminal Glutathion S transferase (GST)-fusion protein. The genes encoding AMPK beta 1 and gamma1 were cloned into the p2Bac dual multiple cloning site vector (Invitrogen) with beta1 under the control of the p10 promoter and gamma1 under the control of the PH promoter. The transfer vectors containing AMPK were co-transfected individually with AcPNV BacMagic-3 DNA (EMD Millipore) in Sf9 cells and the recombinant baculoviruses were harvested after 5 days, followed by 3 rounds of amplification of the virus stock in Sf9 cells. AMPK (alpha1beta1gamma1) was expressed in High Five 5 cells by co-infection of recombinant alpha1 virus and recombinant beta1/gamma1 virus for 72 h at 27° C. Cells were harvested by centrifugation and lysed by 3 freeze/thaw cycles in PBS with 10% glycerol and protease inhibitor cocktail (Roche). After centrifugation AMPK a1b1g1 in the supernatant was captured by immobilized glutathione (GE Healthcare), impurities were washed away with PBS and AMPK alpha1beta1gamma1 was eluted with PBS containing 20 mM reduced gluthathione. The protein buffer was then exchanged to PBS with 10% glycerol and protein concentration was determined by UV absorbance.
The white 384-well Optiplates (cat.no. 6007299) were purchased from PerkinElmer. The V9101 ADP-Glo Kinase Assay and ultra pure ATP (V915A) was purchased from Promega. The substrate for AMPK (NH2-HMRSAMSGLHLVKRR_CONH2) was purchased from Upstate (12-355).
Compounds were tested in either serial dilutions or single dose concentrations. The serial compound dilutions were prepared in 100% DMSO automatically. The final DMSO concentration in the assay was 0.1%.
The Compound Stock Solutions were 10 mM in 100% DMSO. The compounds were solubilised at room temperature.
In the 384-well plates 1.25 ul of test compound in assay buffer was mixed with 1.25 ul of AMPK and 1.25 μl of the peptide (final concentration of 1 μM) and 1.25 μl of ATP (final concentration of 30 μM), both dissolved in assay buffer. This step was followed by an incubation time of 60 min. Then 5 μl of ADP Glo Reagent was added. This was followed by 40 min of incubation. Then 10 μl of Kinase Detection Reagent was admixed. The plates were sealed and after an incubation period of 30 min, the luminescence signal was measured in an Envision reader. All incubation steps were accomplished at room temperature.
Each assay microtiter plate contained wells with vehicle controls instead of compound (0.1% DMSO in water) as reference for the low signal (100% CTL, low signal), and wells with serial dilutions of AMP (final 30 μM) as reference for high signals.
The luminescence signal generated was proportional to the ADP concentration produced and was correlated with AMPK activity. The analysis of the data was performed by the calculation of the percentage of ATP consumption of AMPK in the presence of the test compound compared to the consumption of ATP in the presence of AMPK without compound. (RLU(sample)/RLU(low control))*100[RLU=relative luminescence units]
An activator of the AMPK enzyme gave values above 100% CTL.
EC50 values based on dose response curves are calculated with the XIFIT software using the 4 Parameter Logistic Model or Sigmoidal Dose-Response Model.
On the technique in general: ADP-Glo turns the ADP formed in a reaction into a luminescent signal.
With `CC(C)S(C)(=O)=Nc1ccc(-c2ccc(-c3nc4[nH]c(O[C@@H]5CO[C@H]6[C@@H]5OC[C@H]6O)nc4cc3Cl)cc2)cc1` (stereo partly drawn) [Example 18, N-(4′-(6-Chloro-2-((3R,3aR,6R,6aR)-6-hydroxyhexahydrofuro[3,2-b]furan-3-yloxy)-3H-imidazo[4,5-b]pyridin-5-yl)biphenyl-4-yl)-S-isopropyl-S-methylsulfoximide], a half-maximal response (EC50) required 34 nM.

For the compound `N=S1(=O)CCC(c2ccc(-c3nc4[nH]c(O[C@@H]5CO[C@H]6[C@@H]5OC[C@H]6O)nc4cc3Cl)cc2)CC1` (single isomer, unassigned) [Example 55], the EC50 (commonly the concentration needed to bring the measured effect to its halfway point) was 26 nM.

`C[S@@](=O)(=NC(=O)c1ccc(-c2nc3[nH]c(O[C@@H]4CO[C@H]5[C@@H]4OC[C@H]5O)nc3cc2Cl)cc1)c1ccccc1` [Example 16, (S)-N-4-(6-Chloro-2-((3R,3aR,6R,6aR)-6-hydroxyhexahydrofuro[3,2-b]furan-3-yloxy)-3H-imidazo[4,5-b]pyridin-5-yl)benzoyl-S-methyl-5-phenylsulfoximine] returned an EC50 of 245 nM.

The compound `CS(C)(=N)=Nc1ccc(-c2ccc(-c3nc4[nH]c(O[C@@H]5CO[C@H]6[C@@H]5OC[C@H]6O)nc4cc3Cl)cc2)cc1` [Example 17, N-(4′-(6-Chloro-2-((3R,3aR,6R,6aR)-6-hydroxyhexahydrofuro[3,2-b]furan-3-yloxy)-3H-imidazo[4,5-b]pyridin-5-yl)biphenyl-4-yl)-S,S-dimethyl-sulfondiimine] gave an EC50 of 1 nM.

Compound `CS(C)(=O)=Nc1cnc(-c2ccc(-c3nc4[nH]c(O[C@@H]5CO[C@H]6[C@@H]5OC[C@H]6O)nc4cc3Cl)cc2)cn1` [Example 39, N-(5-{4-[6-Chloro-2-((3R,3aR,6R,6aR)-6-hydroxyhexahydrofuro[3,2-b]furan-3-yloxy)-3H-imidazo[4,5-b]pyridin-5-yl]-phenyl}-pyrazin-2-yl)-S,S-dimethylsulfoximide] returned an EC50 of 8 nM.

On to `O=C(N=S1(=O)CCCCC1)c1ccc(-c2nc3[nH]c(O[C@@H]4CO[C@H]5[C@@H]4OC[C@H]5O)nc3cc2Cl)cc1` [Example 24, 4-[6-Chloro-2-((3R,3aR,6R,6aR)-6-hydroxy-hexahydro-furo[3,2-b]furan-3-yloxy)-3H-imidazo[4,5-b]pyridin-5-yl]-N-(1-oxo-hexahydro-1λ6-thiopyran-1-ylidene)-benzamide], for which the EC50 was found to be 215 nM.

`O=S1(=Nc2ccc(-c3ccc(-c4nc5[nH]c(O[C@@H]6CO[C@H]7[C@@H]6OC[C@H]7O)nc5cc4Cl)cc3)cc2)CCCC1` [Example 8, (3R,3aR,6R,6aR)-6-{6-Chloro-5-[4′-(1-oxo-tetrahydro-1λ4-thiophen-1-ylideneamino)-biphenyl-4-yl]-3H-imidazo[4,5-b]pyridin-2-yloxy}-hexahydro-furo[3,2-b]furan-3-ol] came in with an EC50 of 4 nM.

`CS(C)(=O)=Nc1ccc(-c2ccc(-c3nc4[nH]c(O[C@@H]5CO[C@H]6[C@@H]5OC[C@H]6O)nc4cc3Cl)cc2)nc1` [Example 30, N-(2-(4-(6-Chloro-2-((3R,3aR,6R,6aR)-6-hydroxyhexahydrofuro[3,2-b]furan-3-yloxy)-3H-imidazo[4,5-b]pyridin-5-yl)phenyl)pyridin-5-yl)-S,S-dimethylsulfoximide] displayed an EC50 of 2 nM.

In the case of `CS(C)(=O)=NC(=O)c1ccc(-c2ccc(-c3nc4[nH]c(O[C@@H]5CO[C@H]6[C@@H]5OC[C@H]6O)nc4cc3Cl)cc2)cc1` [Example 6, N-4′-(6-Chloro-2-((3R,3aR,6R,6aR)-6-hydroxyhexahydrofuro[3,2-b]furan-3-yloxy)-3H-imidazo[4,5-b]pyridin-5-yl)biphenyl-4-carbonyl-S,S-dimethylsulfoximide], the EC50 was 2 nM.

`CS(C)(=O)=Nc1cccc(-c2ccc(-c3nc4[nH]c(O[C@@H]5CO[C@H]6[C@@H]5OC[C@H]6O)nc4cc3Cl)cc2)n1` [Example 47, N-(6-{4-[6-Chloro-2-((3R,3aR,6R,6aR)-6-hydroxyhexahydrofuro[3,2-b]furan-3-yloxy)-3H-imidazo[4,5-b]pyridin-5-yl]-phenyl}-pyridin-2-yl)-S,S-dimethylsulfoximide] gave an EC50 of 67 nM.

For the compound `C[S@](=O)(=NC(=O)c1ccc(-c2nc3[nH]c(O[C@@H]4CO[C@H]5[C@@H]4OC[C@H]5O)nc3cc2Cl)cc1)c1ccccc1` [Example 25, (R)-N-4-(6-Chloro-2-((3R,3aR,6R,6aR)-6-hydroxyhexahydrofuro[3,2-b]furan-3-yloxy)-3H-imidazo[4,5-b]pyridin-5-yl)-benzoyl-S-methyl-5-phenylsulfoximine], the EC50 is 1200 nM.

`CS(=N)(=O)c1cccc(-c2ccc(-c3nc4[nH]c(O[C@@H]5CO[C@H]6[C@@H]5OC[C@H]6O)nc4cc3Cl)cc2)c1` (stereo partly drawn) [Example 41, (3R,3aR,6R,6aR)-6-(6-Chloro-5-(3′-(S-methylsulfonimidoyl)biphenyl-4-yl)-3H-imidazo[4,5-b]pyridin-2-yloxy)hexahydrofuro[3,2-b]furan-3-ol] registered an EC50 of 209 nM.

In turn, `CS(=O)(=Nc1ccc(-c2ccc(-c3nc4[nH]c(O[C@@H]5CO[C@H]6[C@@H]5OC[C@H]6O)nc4cc3Cl)cc2)cc1)C1CC1` (stereo partly drawn) [Example 15, N-(4′-(6-Chloro-2-((3R,3aR,6R,6aR)-6-hydroxyhexahydrofuro[3,2-b]furan-3-yloxy)-3H-imidazo[4,5-b]pyridin-5-yl)biphenyl-4-yl)-S-cyclopropyl-S-methylsulfoximide] returned an EC50 of 41 nM.

In turn, `C[S@](=O)(=Nc1ccc(-c2nc3[nH]c(O[C@@H]4CO[C@H]5[C@@H]4OC[C@H]5O)nc3cc2Cl)cc1)c1ccccc1` [Example 12, (R)-N-(4-(6-Chloro-2-((3R,3aR,6R,6aR)-6-hydroxyhexahydrofuro[3,2-b]furan-3-yloxy)-3H-imidazo[4,5-b]pyridin-5-yl)phenyl)-S-methyl-S-phenylsulfoximide] had an EC50 of 581 nM.

Consider `CS(C)(=O)=Nc1ccnc(-c2ccc(-c3nc4[nH]c(O[C@@H]5CO[C@H]6[C@@H]5OC[C@H]6O)nc4cc3Cl)cc2)c1` [Example 37, N-(2-{4-[6-Chloro-2-((3R,3aR,6R,6aR)-6-hydroxyhexahydrofuro[3,2-b]furan-3-yloxy)-3H-imidazo[4,5-b]pyridin-5-yl]-phenyl}-pyridin-4-yl)-S,S-dimethylsulfoximide], for which the EC50 is 47 nM.

`C[S@@](=O)(=Nc1ccc(-c2nc3[nH]c(O[C@@H]4CO[C@H]5[C@@H]4OC[C@H]5O)nc3cc2Cl)cc1)c1ccccc1` [Example 9, (S)-N-(4-(6-Chloro-2-((3R,3aR,6R,6aR)-6-hydroxyhexahydrofuro[3,2-b]furan-3-yloxy)-3H-imidazo[4,5-b]pyridin-5-yl)phenyl)-S-methyl-S-phenylsulfoximide] returned an EC50 of 14 nM.

`CN=S1(=O)CCN(c2ccc(-c3nc4[nH]c(O[C@@H]5CO[C@H]6[C@@H]5OC[C@H]6O)nc4cc3Cl)cc2)CC1` [Example 5] showed an EC50 of 62 nM.

Regarding `CS(C)(=O)=NCc1ccnc(-c2ccc(-c3nc4[nH]c(O[C@@H]5CO[C@H]6[C@@H]5OC[C@H]6O)nc4cc3Cl)cc2)c1` [Example 46, N-(2-(4-(6-Chloro-2-((3R,3aR,6R,6aR)-6-hydroxyhexahydrofuro[3,2-b]furan-3-yloxy)-3H-imidazo[4,5-b]pyridin-5-yl)phenyl)pyridin-4-ylmethyl)-S,S-dimethylsulfoximide], the EC50 was 37 nM.

In the case of `CS(C)(=O)=NCc1cccc(-c2ccc(-c3nc4[nH]c(O[C@@H]5CO[C@H]6[C@@H]5OC[C@H]6O)nc4cc3Cl)cc2)n1` [Example 35, N-(2-(4-(6-Chloro-2-((3R,3aR,6R,6aR)-6-hydroxyhexahydrofuro[3,2-b]furan-3-yloxy)-3H-imidazo[4,5-b]pyridin-5-yl)phenyl)pyridin-6-ylmethyl)-S,S-dimethylsulfoximide], the response was half-maximal at 87 nM (EC50).
